Measurements as given in patent US20100016435A1, “HYBRID MOLECULES HAVING MIXED VITAMIN D RECEPTOR AGONISM AND HISTONE DEACETYLASE INHIBITORY PROPERTIES” (McGill University, priority 2006, published 2010).

Legend:
SCC25 cells = assay: Antiproliferative activity in SCC25 cells; format: cell-based; details: 1 at 1 nM or 100 nM; 3 15 nM; combination 3 with 100 nM 1; FIG. 7B
Source text: FIG. 7 is an illustration of the antiproliferative activities of 1 and 3, individually or in combination, in SCC4 cells (A) or in SCC25 cells (B) at the concentrations indicated.

HDAC6 = HDAC6 (Homo sapiens, UniProt Q9UBN7); details: cited from earlier work
histone H4 = assay: Histone H4 acetylation, Western blot; format: cell-based, human; details: SCC4 cells, 6 h
Source text: (§1) FIG. 4 is an illustration of the HDAC inhibitory activity of 3 in the SCC4 cell line. FIG. 4A is an illustration of a western blot of nuclear and cytoplasmic extracts of SCC4 cells treated with vehicle (−), 1, or 3 alone or in combination, as indicated. The 55 kDa band corresponds to the molecular weight of tubulin. FIG. 4B illustrates a western blot probed with an antibody directed against acetylated histone H4 (AcH4) showing the effects of the treatments described in A on acetylation of histone H4. FIG. 4C illustrates western blots of the effects of treatments described in A on levels of total alpha-tubulin (left) and acetylated alpha-tubulin (right).
(§2) In preliminary experiments, TSA-inducible protein acetylation was analyzed in nuclear and cytoplasmic extracts of SCC4 cells treated for 6 h with 1, 3, or 1 and 3 and subsequently probed by Western blotting for protein acetylation using an anti-acetyllysine antibody. […] Effects of 3 on histone acetylation specifically, were confirmed by probing for acetylation of histone H4 (FIG. 4B). […] However, it was not clear whether this corresponded to enhanced expression or acetylation. […] This was confirmed by probing cytoplasmic fractions with an antibody that recognized α-tubulin (FIG. 4C). Calcitriol (1) had no effect on the acetylation of α-tubulin, and none of the treatments had any substantial effect on total α-tubulin expression (FIG. 4C).

α-tubulin = assay: α-Tubulin acetylation in SCC4 cells, Western blot; format: cell-based, human; details: 3 15 nM; 36 or 39 10^−6 or 10^−7M; 6 h or 24 h, FIG. 6C
Source text: as §1
FIG. 6 is a comparison of the HDAC inhibitory activities of 1, 3, 6, 36 or 39 as assessed by their effects on acetylation of alpha-tubulin. In A, SCC4 cells were incubated with vehicle or compound 1 (10^−6M), 3 (15 nM), 6 (10^−6M) and 36 (10^−6M), as indicated for 6 h and protein extracts were probed for total α-tubulin (Tub.) or acetylated α-tubulin (AcTub.) by Western blotting. Blots for acetylated alpha-tubulin and total alpha-tubulin are shown. In B, SCC4 cells were incubated with vehicle or compound 3 (15 nM), 6 (10^−6M) or 36 (10^−6M) as indicated for 6 h or 24 h and protein extracts were probed for acetylated α-tubulin (AcTub.) by Western blotting. In C, SCC4 cells were incubated with vehicle or compounds 3 (15 nM), 36 (10^−6 or 10^−7M) or 39 (10^−6 or 10^−7M) as indicated for 6 h or 24 h and protein extracts were probed for total α-tubulin (tub.) or acetylated α-tubulin (AcTub.) by Western blotting.
as §2
SCC4 cells were incubated with vehicle or compound as indicated for 6 h and cytoplasmic protein extracts were probed by Western blotting using a specific antibody for acetylated α-tubulin.

SCC4 cells [1] = assay: Antiproliferative activity in SCC4 cells; details: 3 alone, data not shown
human VDR = target: T1, human VDR (Homo sapiens, UniProt P11473); assay: Reporter gene assay (VDRE-luciferase) in transiently transfected COS7 cells; format: cell-based
T1 construct: expressed in transfected cells; host or cells: COS7
T1 sequence (P11473 1-427): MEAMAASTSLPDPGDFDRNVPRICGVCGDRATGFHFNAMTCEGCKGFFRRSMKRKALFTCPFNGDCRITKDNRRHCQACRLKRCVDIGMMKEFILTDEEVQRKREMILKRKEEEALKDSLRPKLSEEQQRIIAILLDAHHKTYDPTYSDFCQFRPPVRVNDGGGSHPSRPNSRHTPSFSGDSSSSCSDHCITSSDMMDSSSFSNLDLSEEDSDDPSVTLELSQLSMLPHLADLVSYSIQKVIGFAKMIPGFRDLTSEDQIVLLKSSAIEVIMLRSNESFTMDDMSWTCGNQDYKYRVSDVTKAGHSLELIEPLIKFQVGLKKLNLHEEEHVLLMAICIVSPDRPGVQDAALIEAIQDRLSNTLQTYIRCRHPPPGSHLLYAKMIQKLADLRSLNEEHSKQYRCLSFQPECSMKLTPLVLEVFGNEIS
Experimental: FIG. 2 is an illustration of the vitamin D receptor agonist activity of 6 using a reporter gene assay in transiently transfected COS7 cells.
Hybrid molecule 6 was tested for calcitriol agonist activity using a reporter gene assay under standard conditions.^25,26 COS7 cells were transiently co-transfected with a plasmid expression vector for the human VDR, a plasmid vector expressing bacterial β-galactosidase from a constitutively active promoter (as an internal control for transfection efficiency), and a vector containing a luciferase reporter gene, under control of a previously described synthetic promoter composed of three high affinity VDREs (Vitamin D Response Elements) placed immediately upstream of a truncated promoter region from the herpes simplex virus thymidine kinase gene.^25 Cells were left overnight in the presence of DNA and transfection reagent (lipofectamine). The media were changed and cells were incubated in fresh media containing either vehicle (DMSO), 1 (100 nM), 3 (15 nM), 1 and 3 combined (100 nM/15 nM) or 6 (100 nM), and incubated a further 36 h.

SCC4 cells [2] = assay: Protein acetylation in nuclear and cytoplasmic extracts, Western blot with anti-acetyllysine antibody; format: cell-based, human; details: 6 h
Source text: as §1, §2

SCC4 cells [3] = assay: Immunocytochemical and morphological analysis (mitotic catastrophe); format: cell-based, human
Source text: FIG. 12 is an illustration of the immunocytochemical analysis of the effects of 1, 3, or 1 and 3 combined on SCC4 cells (A). […] Both phenotypes are characteristics of mitotic catastrophe. The lower panels (B) show cytoplasmic bridges between SCC4 cells treated with 1 and 3, consistent with the formation of the tubulin bridges seen above in A.
Assembly into microtubules is regulated by acetylation. […] Previous studies have shown that microtubule stabilizing agents can induce mitotic catastrophe (ref. 30). […] The formation of intercellular microtubular structures was consistent with observations in the light microscope of numerous intercellular bridges in cells treated with both 1 and 3 (FIG. 12B, arrows), but not in other treatment groups (not shown).

SCC4 cells [4] = assay: Acidic β-galactosidase activity (marker of autophagy), X-Gal staining and 620 nm measurement; format: cell-based, human; details: qualitative, FIG. 10A
Source text: FIG. 10 is an illustration of the effects of 1, 3, 1+3 and 6 on the induction of acidic β-galactosidase activity, a marker of autophagy (A); FIG. 10 is an illustration of the effects 1, 3, 1+3 and 6 on the levels of β-galactosidase expression as obtained by measuring the indigo cleavage product of X-Gal at 620 nm (B).
Since it was observed that treatment with 1 could enhance cell death by autophagy (ref. 26), the effects of different treatments on the induction of acidic β-galactosidase activity, a marker of autophagy (FIG. 10A) was tested.

HDAC6, sequence (Q9UBN7 whole entry, species assumed): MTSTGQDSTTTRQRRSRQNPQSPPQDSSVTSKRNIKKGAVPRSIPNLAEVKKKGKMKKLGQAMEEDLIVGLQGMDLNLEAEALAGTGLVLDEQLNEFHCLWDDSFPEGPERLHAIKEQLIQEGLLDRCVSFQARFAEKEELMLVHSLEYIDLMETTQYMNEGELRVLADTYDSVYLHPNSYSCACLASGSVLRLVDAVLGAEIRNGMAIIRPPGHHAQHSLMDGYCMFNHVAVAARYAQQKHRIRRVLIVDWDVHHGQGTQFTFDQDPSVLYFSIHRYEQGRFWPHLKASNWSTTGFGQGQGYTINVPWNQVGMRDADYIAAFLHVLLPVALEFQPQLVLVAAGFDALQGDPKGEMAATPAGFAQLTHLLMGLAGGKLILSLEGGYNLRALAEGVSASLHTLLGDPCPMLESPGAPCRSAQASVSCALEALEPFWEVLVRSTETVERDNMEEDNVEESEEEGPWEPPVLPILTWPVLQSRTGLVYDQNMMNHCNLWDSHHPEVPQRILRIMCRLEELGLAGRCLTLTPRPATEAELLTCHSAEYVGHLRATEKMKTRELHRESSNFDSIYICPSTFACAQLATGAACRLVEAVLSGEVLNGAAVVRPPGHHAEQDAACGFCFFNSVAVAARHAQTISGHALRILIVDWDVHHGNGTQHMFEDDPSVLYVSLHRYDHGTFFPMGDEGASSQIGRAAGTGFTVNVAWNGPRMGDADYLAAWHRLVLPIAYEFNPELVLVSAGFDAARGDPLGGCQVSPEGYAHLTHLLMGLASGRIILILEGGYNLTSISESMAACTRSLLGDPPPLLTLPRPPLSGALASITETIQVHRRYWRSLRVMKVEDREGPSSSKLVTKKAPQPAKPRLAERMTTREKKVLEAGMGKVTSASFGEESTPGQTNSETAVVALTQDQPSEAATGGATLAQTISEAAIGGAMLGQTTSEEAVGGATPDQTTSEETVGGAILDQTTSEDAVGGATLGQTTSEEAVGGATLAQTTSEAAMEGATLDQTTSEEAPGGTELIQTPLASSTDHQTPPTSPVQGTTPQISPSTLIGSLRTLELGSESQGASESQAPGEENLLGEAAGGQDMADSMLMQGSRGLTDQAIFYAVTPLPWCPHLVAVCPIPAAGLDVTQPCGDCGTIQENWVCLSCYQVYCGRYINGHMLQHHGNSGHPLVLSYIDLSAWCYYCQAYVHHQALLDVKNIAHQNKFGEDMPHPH

Structure (SMILES): CC(/C=C/C(=O)NO)=C\[C@@H](C)C(=O)c1ccc(N(C)C)cc1 [compound 3, trichostatin A]
- SCC25 proliferation / sensitivity (SCC25 cells): substantially less sensitive
- HDAC6 activity (HDAC6): can be blocked
- histone H4 acetylation (histone H4): markedly enhanced
- levels of acetylated alpha-tubulin normalized for total alpha-tubulin (α-tubulin): Elevated levels
- SCC4 proliferation (SCC4 cells [1]; 50 nM): completely inhibited
- cell death (SCC4 cells [1]; concentrations higher than 50 nM): substantial cell death
- reporter gene activity (calcitriol agonist activity) (human VDR; COS7, 36 h, 1 100 nM, 3 15 nM, 6 100 nM, not normalized): no substantial effect
- expression from the internal control plasmid (β-galactosidase) (human VDR; COS7 cells): modestly affects expression
- acetylation of a 55 kDa protein, likely tubulin (SCC4 cells [2]; cytoplasmic extracts): markedly enhanced
- acetylation of low molecular weight nuclear proteins (SCC4 cells [2]; nuclear extracts): markedly enhanced
- cell morphology (SCC4 cells [3]; FIG. 12): did not differ from control cells
- induction of mitotic catastrophe (SCC4 cells [3]; SCC4 cells): not 1 or 3 alone
- acidic β-galactosidase staining (X-Gal, pH 4.0), cytochemical (SCC4 cells [4]): weak or relatively modest effects
